Source: PubChem BioAssay (NCI)
Where “and” joins values, the source holds several entries; their conditions need not be identical. Identical values can stand only once.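 The compound was tested at five concentrations on cells cultured in 96-well plates, with a 48-hour exposure period. At the GI50, growth is halved. TGI denotes the concentration required for complete inhibition of growth.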

Assays:
Assay in all cases: DTP human tumour cell line panel, 48 h
TK-10 renal = system: TK-10 renal
MDA-MB-435 = system: MDA-MB-435
MDA-MB-231 breast = system: MDA-MB-231 breast
SF-539 CNS = system: SF-539 CNS
COLO 205 colon = system: COLO 205 colon
OVCAR-5 ovarian = system: OVCAR-5 ovarian
CAKI-1 renal = system: CAKI-1 renal
OVCAR-4 ovarian = system: OVCAR-4 ovarian

Row | SMILES | TGI (TK-10 renal) | TGI (MDA-MB-435) | TGI (MDA-MB-231 breast) | TGI (SF-539 CNS) | TGI (COLO 205 colon) | TGI (OVCAR-5 ovarian) | TGI (CAKI-1 renal) | TGI (OVCAR-4 ovarian) | GI50 (OVCAR-4 ovarian) | GI50 (TK-10 renal) | GI50 (MDA-MB-435) | GI50 (MDA-MB-231 breast) | GI50 (SF-539 CNS) | GI50 (COLO 205 colon) | GI50 (OVCAR-5 ovarian) | GI50 (CAKI-1 renal)
1 | Nc1nc(-c2ccccc2)nc2c1[n+]([O-])c1ccccc1[n+]2[O-] | > 100 µM | > 100 µM | > 100 µM | > 100 µM | > 100 µM | > 100 µM | > 100 µM | – | – | – | – | – | – | – | – | –
2 | COC(=O)CCCC(=O)O | > 100 µM | > 100 µM | > 100 µM | – | > 100 µM | > 100 µM | > 100 µM | > 100 µM | – | – | – | – | – | – | – | –
3 | NC(=O)c1ccc2nc(-c3ccc(Oc4ccc(Cl)cc4)cc3)[nH]c2c1 | 75 µM and 39.9 µM | 75 µM and 31.2 µM | > 75 µM and 36.3 µM | 75 µM and 28 µM | 75 µM and 38.9 µM | > 75 µM and 36.8 µM | 39.6 µM and 49.8 µM | 75 µM and 31.1 µM | 41.7 µM and 11.4 µM | 8.61 µM and 16.4 µM | 34.4 µM and 14.5 µM | > 75 µM and 18.8 µM | 27.6 µM and 13 µM | 22.3 µM and 20.8 µM | > 75 µM and 18.6 µM | 6.4 µM and 16.5 µM
4 | COc1ccc(-c2nc3ccccn3c2/C=C/C(=O)c2cc(OC)c(OC)c(OC)c2)cc1 | > 100 µM | 27.6 µM | > 100 µM | 11.5 µM | 13.5 µM | 82.2 µM | > 100 µM | > 100 µM | 5.72 µM | 4.16 µM | 5.76 µM | 5.22 µM | 2.39 µM | 3.5 µM | 9.33 µM | 8.33 µM
5 | O=C(Nc1ccccc1)NS(=O)(=O)c1ccc(-n2nc3c(c2-c2ccc(Cl)cc2)Cc2ccccc2-3)cc1 | 74.4 µM | 52.7 µM | 63.3 µM | 45.6 µM | 64.9 µM | – | 29.2 µM | > 100 µM | 45.2 µM | 18.3 µM | 16.8 µM | 14.7 µM | 18.8 µM | 23.5 µM | – | 4.37 µM
6 | CCCCS(=O)(=O)CCC(N)C(=O)O (configuration not stated) | > 100 µM | – | > 100 µM | > 100 µM | > 100 µM | > 100 µM | > 100 µM | > 100 µM | – | – | – | – | – | – | – | –
7 | COc1cc(O)c(C(=O)/C=C/c2ccc(O)cc2)c(O)c1[C@@H]1C[C@H](CCc2ccc(O)cc2)O[C@H](c2ccc(O)cc2)C1 | 17.1 µM | 14 µM | 6.32 µM | 7.4 µM | 8.44 µM | 19.9 µM | 28.9 µM | 16.8 µM | 3.35 µM | 4.55 µM | 3.89 µM | 2.26 µM | 2.61 µM | 2.72 µM | 7.53 µM | 13.6 µM
8 | CC(C)CCN=C(N)c1ccc(N2CCN(c3ccc(C(N)=NCCC(C)C)cc3)CC2)cc1 | 89.9 µM | 24.2 µM | 52.7 µM | – | > 100 µM | > 100 µM | > 100 µM | 33.1 µM | 3.4 µM | 9.08 µM | 9.76 µM | 20.6 µM | – | 8.9 µM | 38.5 µM | 31.4 µM
9 | C=C1CCC2C(C)(C)CCC[C@]2(C)[C@H]1CO (some centres not stated) | > 100 µM | > 100 µM | > 100 µM | – | > 100 µM | > 100 µM | > 100 µM | – | – | > 100 µM | 43.2 µM | 50.2 µM | – | 42.1 µM | 93.5 µM | > 100 µM
10 | Fc1ccc(Nc2nc3nonc3nc2Nc2ccc(F)cc2)cc1 | 6.74 µM | 3.61 µM | 4.25 µM | 11.6 µM | 1.43 µM | 13.8 µM | 10.8 µM | 10.9 µM | 0.294 µM | 0.435 µM | 0.338 µM | 0.493 µM | 0.486 µM | 0.342 µM | 0.709 µM | 0.35 µM
11 | CN1c2ccccc2C(C)(C)C12C=Cc1cc(O)ccc1O2 (configuration not stated) | 9.63 µM | 4.49 µM | 16.3 µM | 4.15 µM | 3.88 µM | 25.2 µM | 12.4 µM | 17.6 µM | 4.73 µM | 2.94 µM | 2.1 µM | 3.93 µM | 1.94 µM | 1.9 µM | 10.2 µM | 3.37 µM
12 | COc1ccc(OC)c(/C=C(/C)[N+](=O)[O-])c1 | 3.47 µM | 6.8 µM | 7.45 µM | 5.04 µM | 3.63 µM | 10.7 µM | 2.77 µM | 3.5 µM | 1.98 µM | 1.96 µM | 2.29 µM | 2.71 µM | 2.29 µM | 1.92 µM | 3.13 µM | 1.29 µM
13 | O=[N+]([O-])c1c(Br)sc(Br)c1[N+](=O)[O-] | 6.18 µM | 5.28 µM | 6.19 µM | 6.35 µM | 3.38 µM | 6.95 µM | 3.63 µM | 3.62 µM | 1.85 µM | 2.31 µM | 2 µM | 2.32 µM | 2.49 µM | 1.57 µM | 2.46 µM | 1.83 µM
14 | COc1cc2c(cc1C)NC(=O)/C2=C\c1cccc(Oc2ccccc2)c1 | 50.6 µM | 25.9 µM | 37.4 µM | 34.5 µM | 33.5 µM | 32.4 µM | 41.2 µM | 35.6 µM | 14.4 µM | 23.3 µM | 11.8 µM | 16.3 µM | 19.4 µM | 16.6 µM | 17 µM | 19.4 µM
15 | CC1(C)[C@@H](O[C@@H]2OC[C@@H](O[C@@H]3O[C@H](CO)[C@@H](O)[C@H](O)[C@H]3O[C@@H]3OC[C@@H](O)[C@H](O)[C@H]3O)[C@H](O)[C@H]2O[C@@H]2O[C@H](CO)[C@@H](O)[C@H](O)[C@H]2O)CC[C@]2(C)[C@H]3CC[C@]45OC[C@@]6(CC[C@](C)(C=O)C[C@H]64)[C@H](O)C[C@@]5(C)[C@]3(C)CC[C@@H]12 | 1.83 µM | 1.6 µM | 1.9 µM | 3.35 µM | 2.01 µM | 1.66 µM | 1.45 µM | 1.66 µM | 0.794 µM | 0.945 µM | 0.851 µM | 0.915 µM | 1.21 µM | 1.02 µM | 0.834 µM | 0.763 µM
16 | Cc1cccc2c(=O)c3c(sc12)c(NCCNCCO)nc1ccccc13 | – | 3.25 µM | 2.62 µM | 3.12 µM | 3.35 µM | 3.06 µM | 2.56 µM | 3.48 µM | 1.75 µM | – | 1.75 µM | 1.23 µM | 1.72 µM | 1.56 µM | 1.61 µM | 1.25 µM
17 | Oc1[nH]c2ccc(Cl)cc2c1/C=c1/ccc2c(c1)N=C(c1ccc(F)cc1)N=2 | 4.88 µM | 3.45 µM | 4.18 µM | 5 µM | 5.23 µM | 14.7 µM | 20.3 µM | 3.1 µM | 1.64 µM | 2.83 µM | 1.62 µM | 1.63 µM | 2.24 µM | 2.32 µM | 4.17 µM | 4.08 µM
18 | Nc1nc(-c2ccccc2)nc(N)c1N=O | 14.8 µM | 51.9 µM | 28.9 µM | 19.5 µM | 8.45 µM | 26.8 µM | 36.3 µM | 79.4 µM | 7.39 µM | 4.68 µM | 4.57 µM | 12.6 µM | 5.69 µM | 2.59 µM | 13.7 µM | 4.5 µM
19 | COc1ccc2c(c1)C(=O)c1c-2c(Nc2ccc(Cl)cc2)nc2ccccc12 | 34.3 µM | > 100 µM | 18.9 µM | 26.2 µM | > 100 µM | 84.1 µM | > 100 µM | 42.9 µM | 10.1 µM | 14.3 µM | 38.6 µM | 4.46 µM | 8.76 µM | 34.8 µM | 22.3 µM | 20.4 µM
20 | CC(=O)O[C@]1(C(C)=O)CC[C@H]2[C@@H]3C=C(C)C4=CC(=O)CC[C@]4(C)[C@H]3CC[C@@]21C | > 100 µM | > 100 µM | > 100 µM | > 100 µM | > 100 µM | > 100 µM | > 100 µM | > 100 µM | > 91.5 µM | > 77.6 µM | > 100 µM | > 100 µM | > 61.4 µM | > 100 µM | > 100 µM | > 100 µM
21 | NC(=O)c1cc(-c2ccc(F)cc2)cc(-c2ccncc2)c1N | > 25 µM | > 25 µM | > 25 µM | > 25 µM | > 25 µM | > 25 µM | > 25 µM | > 25 µM | > 25 µM | > 25 µM | > 25 µM | > 25 µM | > 25 µM | > 25 µM | > 25 µM | 13.7 µM
22 | C[C@@H](CO)[C@@H]1CCC=C2CC[C@]3(C)[C@H](CC[C@@H]4[C@@]5(C)CCCNC(C)(C)[C@@H]5CC[C@]43C)[C@H]21 | 24.8 µM | 3.53 µM | 4.03 µM | 14.6 µM | – | 12.6 µM | 4.25 µM | 5.02 µM | 1.98 µM | 8.36 µM | 1.76 µM | 1.94 µM | 3.48 µM | – | 3.18 µM | 1.89 µM
23 | COc1ccc(Nc2c3ccccc3nc3ccccc23)cc1 | 13.7 µM | – | 19.3 µM | 14.6 µM | 1.85 µM | 23 µM | 10.4 µM | 15 µM | 2.06 µM | 2.78 µM | – | 2.58 µM | 2.95 µM | 0.52 µM | 6.15 µM | 1.21 µM
